The subject of assay [1] is BON-1 cells. Kind of assay: Annexin V FITC apoptosis analysis. Format: cell-based, human. Particulars: 3 uM or 6 uM TQ, 72 h. On the procedure: (§1) About 30,000 BON-1 cells were grown in triplicate in 6 well plates overnight. The next day cells were exposed to 3 uM or 6 uM TQ (or control) for 72 h followed by Annexin V FITC apoptosis analysis. See, e.g., Demchenko 2012, Exp. Oncol. 34, 263-268. In addition, BON-1 cells grown and treated under similar experimental conditions were evaluated by Western blotting for the presence of cleaved PARP-a marker of apoptosis. See, e.g., Chaitanya et al. 2010, Cell Comm. Signal. 8, 31.

For assay [2], the system named is pancreatic ductal adenocarcinoma tumor models. Kind of assay: TQ inhibitory action in pancreatic ductal adenocarcinoma tumor models. Type of assay: cell-based.
Assay [3] deals with BON-1 cells. Kind of assay: Cell viability (MTT) assay, BON-1 cells. Type of assay: cell-based, human. Particulars: 72 hrs. On the procedure: (§2) TQ activity was evaluated in two human pancreatic neuroendocrine tumor (pNEN) cell lines: (1) BON-1 cells, established from a lymph node metastasis of a pNET (Evers et al. 1991, Gastroenterology. 101, 303-311); and (2) QGP-1 cells, established from primary somatostatin producing pNET (Kaku et al. 1980, Gan. 71, 596-601). […] See Vandamme et al. 2015, J. Mol. Endocrinol. 54, 137-147.
(§3) About 5000 Bon-1 or 5000 QGP-1 cells were grown in 96-well plates overnight. On the following day, the cells were exposed to the indicated concentrations of TQ for 72 hrs. At the end of the treatment period, a standard MTT assay was performed to measure cell proliferation and conversely, in the presence of TQ, the reduction in cell viability The values represent 6 replicates per dose from three independent experiments.

The subject of another assay is QGP-1 cells. Kind of assay: Cell viability (MTT) assay, QGP-1 cells. Type of assay: cell-based, human. The note with it: 72 hrs. On the procedure: as §2, §3
The test system of assay [4] is PARP cleavage in BON-1 cells. Kind of assay: Western blotting for cleaved PARP. Format: cell-based, human. Particulars: 3 uM or 6 uM TQ, 72 h. The protocol:
as §1
On the technique in general: Immunoblotting shows a protein as a band on a membrane.

A further assay deals with Bon-1 (or QGP-1) cells. Kind of assay: Colony formation assay. Format: cell-based, human. Particulars: 2.5 uM or 12.5 uM TQ 72 hrs, then 12 days drug free; p<0.01. The protocol:
About 500 Bon-1 (or QGP-1) cells were seeded in 6-well plates in triplicate and allowed to attach overnight. On the following day, cells were treated with 2.5 uM or 12.5 uM TQ (or control) for 72 hrs. After treatment, cells were replenished with drug free media for 12 days and subjected to 0.5% crystal violet staining. Bar diagrams (FIG. 1B) show the number of colonies at the indicated TQ concentration.

For assay [5], the system named is patients with refractory high grade (G3) NENs. Particulars: cited from earlier work.
Assay [6] concerns patients with refractory poorly differentiated NEC. The note with it: cited from earlier work.
For a further assay, the system named is breast cancer cells. The note with it: cited from earlier work.
In the next assay the test system is refractory NEC patients. Particulars: high-grade NEC group of 21 patients; cited from earlier work.

The text below walks through data of patent US20250161236A1, “THYMOQUINONE AND BLACK SEED COMPOSITIONS FOR TREATING NEUROENDOCRINE CANCER IN COMBINATION WITH IMMUNOTHERAPY” (Novatek Pharmaceuticals, Inc., priority 2023, published 2025).

Take `CC1=CC(=O)C(C(C)C)=CC1=O` [TQ, Thymoquinone]: in the assay on BON-1 cells [1], the “apoptosis (Annexin V-FITC staining, flow cytometry)” value is “induced significant apoptosis”. Also, the IC50 result in [2] was “high uM range”. Further, the “IC50 (cell viability)” value in the assay with BON-1 cells [3] and in the assay on QGP-1 cells was “low uM range” each time. Also, in assay [4], the “PARP cleavage product (western blot)” value was “dose dependent accumulation of the PARP cleavage product”. For the same molecule, the “long term growth in colony formation assay” value in the assay on Bon-1 (or QGP-1) cells was “suppressed long term growth”.

As for pembrolizumab: anti-PD1 antibody, the “objective response rate (ORR)” value in assay [5] is given as 5%.

On to nivolumab: anti-PD-1 antibody, for which the ORR in [6] (at 8 weeks) is reported as 7.2%. In assay [6], the OS was 7.2 months and the PFS is 1.8 months.

In the case of `CCCCCCCCCOc1c(CCCC(=O)O)cc(-c2ccc(C(=O)O)cc2)cc1CCCC(=O)O` [CNBDA], the “inhibitory effects against breast cancer cells” value with breast cancer cells is given as “significant inhibitory effects”.

B1: spartalizumab: single agent ICPI in a phase II study in refractory NEC (antibody, chains of the INN, looked up, V domains shown)
VH: EVQLVQSGAEVKKPGESLRISCKGSGYTFTTYWMHWVRQATGQGLEWMGNIYPGTGGSNFDEKFKNRVTITADKSTSTAYMELSSLRSEDTAVYYCTRWTTGTGAYWGQGTTVTVSS
VL: EIVLTQSPATLSLSPGERATLSCKSSQSLLDSGNQKNFLTWYQQKPGQAPRLLIYWASTRESGVPSRFSGSGSGTDFTFTISSLEAEDAATYYCQNDYSYPYTFGQGTKVEIK
Regarding B1, in the assay with refractory NEC patients, the ORR is given as 4.8%, the OS is recorded as 6.8 months and the PFS is 1.8 months.
